Test system: patients with negative symptoms of schizophrenia
Test: Integrated analysis of Studies #1 and #2 (pooled ITT): PANSS-derived scores (NSFS, total, positive and negative subscales), DB, OL and whole study
Format: in vivo, human
Parameters: key to NSFS Score change from Baseline, Median: change from Baseline in PANSS NSFS points; higher score = more severe
Details: pooled ITT; for NSFS Score change from Baseline, Median / PANSS Negative Subscale Score change from Baseline, Mean (SD) / PANSS Negative Subscale Score change from Baseline, Median / PANSS Total Score change from Baseline, Mean (SD) / PANSS Total Score change from Baseline, Median / PANSS Positive Subscale Score change from Baseline, Mean (SD) / PANSS Positive Subscale Score change from Baseline, Median / NSFS Score change from Baseline, Mean (SD): Roluperidone Total; for NSFS Score change from Baseline, Median / PANSS Negative Subscale Score change from Baseline, Mean (SD) / PANSS Negative Subscale Score change from Baseline, Median / PANSS Total Score change from Baseline, Mean (SD) / PANSS Total Score change from Baseline, Median / NSFS Score change from Baseline, Mean (SD): DB; for NSFS Change from Active BL to Week 24, Mean (SD) / NSFS Change from Active BL to Week 24, Median / NSFS Change from Active BL to Week 52, Mean (SD) / NSFS Change from Active BL to Week 52, Median / NSFS Change from Active BL to Week 54, Mean (SD) / NSFS Change from Active BL to Week 54, Median / NSFS Change from Open-label BL to Week 24, Mean (SD) / NSFS Change from Open-label BL to Week 24, Median / NSFS Change from Open-label BL to Week 52, Mean (SD) / NSFS Change from Open-label BL to Week 52, Median / NSFS Change from Open-label BL to Week 54, Mean (SD) / NSFS Change from Open-label BL to Week 54, Median / NSFS Change from Study BL to Week 24, Mean (SD) / NSFS Change from Study BL to Week 24, Median / NSFS Change from Study BL to Week 52, Mean (SD) / NSFS Change from Study BL to Week 52, Median / NSFS Change from Study BL to Week 54, Mean (SD) / NSFS Change from Study BL to Week 54, Median: Roluperidone at Any Time
Protocol: The primary integrated analysis of the efficacy of Roluperidone compared with placebo for the treatment of negative symptoms of schizophrenia is based on the change from Baseline in the PANSS Marder's negative symptoms factor score (in this document referred to as NSFS) to Week 12. Efficacy is also supported by the analysis of change from Baseline in the PSP Total score and the CGI-S to Week 12.
The PANSS was assessed at the time points described in Table 4.
The PANSS-derived endpoints used in these studies and the integrated analyses are described in Table 5A and a summary of the individual PANSS items used by physicians and clinicians to measure the severity of the symptoms in a schizophrenia patient is provided in Table 5B. The scale is divided into three parts, a positive scale, which provides a “PANSS positive subscore”, a negative scale, which provides a “PANSS negative subscore”, and general psychopathology scale. The sum of these three parts provides a PANSS total score, which ranges from 30 to 210 (where higher scores indicate more severe symptoms). (See Kay, S. R., et al. “The positive and negative syndrome scale (PANSS) for schizophrenia,” Schizophr Bulletin, 13(2), 261-276 (1987) and Gopal, S., et al. “Improvement of Negative Symptoms in Schizophrenia with Paliperidone Palmitate 1-Month and 3-Month Long-Acting Injectables: Results from a Phase 3 Non-Inferiority Study” Neuropsychiatric Disease and Treatment, 681-690, DOI: 10.2147/NDT.5226296, both of which are incorporated by reference.)
The Efficacy data from Study Nos. 1 and 2 were pooled. The majority of patients in the pooled ITT population completed the DB period (502 patients overall, 66.3%), with similar rates in each treatment group (placebo: 69.8%, 32 mg Roluperidone: 65.3%, and 64 mg Roluperidone: 63.8%) (Table 12). The majority (62.7%) of those who completed the DB period entered the OL period. The most common reason for discontinuation during the DB period among patients overall was withdrawal of consent (15.6%), followed by adverse events (7.3%) and lack of efficacy (5.4%) (Table 12). […] Approximately twice as many patients in the Roluperidone groups (32 mg: 8.5%; 64 mg: 9.1%) discontinued due to adverse events compared with patients in the placebo group (4.3%). More patients in the placebo group discontinued due to lack of efficacy (6.7%) than in the Roluperidone groups (32 mg: 4.4%; 64 mg: 5.1%). The low number of patients who discontinued due to lack of efficacy or withdrawal of consent probably reflects a low level of worsening of positive symptoms.
The integrated analysis supporting the efficacy of Roluperidone as a treatment for the negative symptoms of schizophrenia in adults is presented below.

1H-Isoindol-1-one,2-[ [1-[2-(4-fluorophenyl)-2-oxoethyl]-4-piperidinyl]methyl]-2,3-dihydro-, hydrochloride, hydrate (1:1:2) [Roluperidone]
NSFS Score change from Baseline, Median (Week 4): −2.0 | PANSS Negative Subscale Score change from Baseline, Mean (SD) (Week 4): −2.5 (2.75) | PANSS Negative Subscale Score change from Baseline, Median (Week 4): −2.0 | PANSS Total Score change from Baseline, Mean (SD) (Week 4): −4.8 (7.13) | PANSS Total Score change from Baseline, Median (Week 4): −5.0 | PANSS Positive Subscale Score change from Baseline, Mean (SD) (Week 4): −0.4 (2.49) | PANSS Positive Subscale Score change from Baseline, Median (Week 4): 0.0 | NSFS Score change from Baseline, Mean (SD) (Week 8): −3.4 (3.25) | NSFS Score change from Baseline, Median (Week 8): −3.0 | PANSS Negative Subscale Score change from Baseline, Mean (SD) (Week 8): −3.6 (3.38) | PANSS Negative Subscale Score change from Baseline, Median (Week 8): −3.0 | PANSS Total Score change from Baseline, Mean (SD) (Week 8): −6.5 (8.35) | PANSS Total Score change from Baseline, Median (Week 8): −6.0 | PANSS Positive Subscale Score change from Baseline, Mean (SD) (Week 8): −0.5 (2.55) | PANSS Positive Subscale Score change from Baseline, Median (Week 8): 0.0 | NSFS Score change from Baseline, Mean (SD) (Week 12): −3.8 (3.39) | NSFS Score change from Baseline, Median (Week 12): −4.0 | PANSS Negative Subscale Score change from Baseline, Mean (SD) (Week 12): −4.0 (3.59) | PANSS Negative Subscale Score change from Baseline, Median (Week 12): −3.0 | PANSS Total Score change from Baseline, Mean (SD) (Week 12): −7.3 (8.66) | PANSS Total Score change from Baseline, Median (Week 12): −7.0 | PANSS Positive Subscale Score change from Baseline, Mean (SD) (Week 12): −0.6 (2.64) | PANSS Positive Subscale Score change from Baseline, Median (Week 12): 0.0 | NSFS Change from Active BL to Week 24, Mean (SD) (32 mg): −3.7 (3.45) | NSFS Change from Active BL to Week 24, Median (32 mg): −4.0 | NSFS Change from Active BL to Week 52, Mean (SD) (32 mg): −5.7 (3.95) | NSFS Change from Active BL to Week 52, Median (32 mg): −5.0 | NSFS Change from Active BL to Week 54, Mean (SD) (32 mg): −5.7 (3.55) | NSFS Change from Active BL to Week 54, Median (32 mg): −6.0 | NSFS Change from Open-label BL to Week 24, Mean (SD) (32 mg): −1.4 (2.51) | NSFS Change from Open-label BL to Week 24, Median (32 mg): −1.0 | NSFS Change from Open-label BL to Week 52, Mean (SD) (32 mg): −3.3 (3.23) | NSFS Change from Open-label BL to Week 52, Median (32 mg): −3.0 | NSFS Change from Open-label BL to Week 54, Mean (SD) (32 mg): −3.3 (3.45) | NSFS Change from Open-label BL to Week 54, Median (32 mg): −3.0 | NSFS Change from Study BL to Week 24, Mean (SD) (32 mg): −4.9 (3.61) | NSFS Change from Study BL to Week 24, Median (32 mg): −5.0 | NSFS Change from Study BL to Week 52, Mean (SD) (32 mg): −6.9 (3.95) | NSFS Change from Study BL to Week 52, Median (32 mg): −6.0 | NSFS Change from Study BL to Week 54, Mean (SD) (32 mg): −6.8 (3.80) | NSFS Change from Study BL to Week 54, Median (32 mg): −6.0 | NSFS Change from Active BL to Week 24, Mean (SD) (64 mg): −4.2 (3.92) | NSFS Change from Active BL to Week 24, Median (64 mg): −4.0 | NSFS Change from Active BL to Week 52, Mean (SD) (64 mg): −6.7 (4.23) | NSFS Change from Active BL to Week 52, Median (64 mg): −7.0 | NSFS Change from Active BL to Week 54, Mean (SD) (64 mg): −6.6 (4.40) | NSFS Change from Active BL to Week 54, Median (64 mg): −7.0 | NSFS Change from Open-label BL to Week 24, Mean (SD) (64 mg): −1.6 (3.02) | NSFS Change from Open-label BL to Week 24, Median (64 mg): −1.0 | NSFS Change from Open-label BL to Week 52, Mean (SD) (64 mg): −4.3 (3.77) | NSFS Change from Open-label BL to Week 52, Median (64 mg): −4.0 | NSFS Change from Open-label BL to Week 54, Mean (SD) (64 mg): −4.0 (3.88) | NSFS Change from Open-label BL to Week 54, Median (64 mg): −4.0 | NSFS Change from Study BL to Week 24, Mean (SD) (64 mg): −5.0 (3.49) | NSFS Change from Study BL to Week 24, Median (64 mg): −5.0 | NSFS Change from Study BL to Week 52, Mean (SD) (64 mg): −7.5 (3.61) | NSFS Change from Study BL to Week 52, Median (64 mg): −7.0 | NSFS Change from Study BL to Week 54, Mean (SD) (64 mg): −7.4 (3.81) | NSFS Change from Study BL to Week 54, Median (64 mg): −7.0 | NSFS Change from Active BL to Week 24, Mean (SD) (Total): −5.1 (3.52) | NSFS Change from Active BL to Week 24, Median (Total): −5.0 | NSFS Change from Active BL to Week 52, Mean (SD) (Total): −7.0 (3.84) | NSFS Change from Active BL to Week 52, Median (Total): −6.0 | NSFS Change from Active BL to Week 54, Mean (SD) (Total): −7.0 (3.56) | NSFS Change from Active BL to Week 54, Median (Total): −7.0 | NSFS Change from Open-label BL to Week 24, Mean (SD) (Total): −1.3 (2.56) | NSFS Change from Open-label BL to Week 24, Median (Total): −1.0 | NSFS Change from Open-label BL to Week 52, Mean (SD) (Total): −3.2 (2.99) | NSFS Change from Open-label BL to Week 52, Median (Total): −3.0 | NSFS Change from Open-label BL to Week 54, Mean (SD) (Total): −3.2 (3.29) | NSFS Change from Open-label BL to Week 54, Median (Total): −3.0 | NSFS Change from Study BL to Week 24, Mean (SD) (Total): −5.1 (3.52) | NSFS Change from Study BL to Week 24, Median (Total): −5.0 | NSFS Change from Study BL to Week 52, Mean (SD) (Total): −7.0 (3.84) | NSFS Change from Study BL to Week 52, Median (Total): −6.0 | NSFS Change from Study BL to Week 54, Mean (SD) (Total): −7.0 (3.56) | NSFS Change from Study BL to Week 54, Median (Total): −7.0

Reference: patent US20230255953A1, “USE OF ROLUPERIDONE IN PREVENTING RELAPSE IN SCHIZOPHRENIA PATIENTS” (Minerva Neurosciences, Inc., priority 2022, published 2023)
